The values that follow are results of earlier work, collected in patent publication US20080004223A1, “DERMATOLOGICAL USES OF THE TRIPEPTIDE MELANOCYTE STIMULATING INHIBITORY FACTOR (MIF)” (priority 2006, published 2008).

Like-named read-outs stand apart in the source and are kept apart here. Residues, ends and D or L forms follow the SMILES beside them. No end group written: not given here.

The conditions of data set [1]: mice, modified Dopa test; U.S. Pat. No. 3,708,593.
The conditions of data set [2]: U.S. Pat. No. 4,278,595.
For data set [3] the following is noted: water wheel test; Kastin et al. 1984.
For data set [4] the following is noted: rats; Petersson et al. 2004.
For data set [5] the following is noted: rats; Kastin et al. 1985.
The conditions of data set [6]: rats; Hayashi et al. 1983, 1984.
For data set [7] the following is noted: rats; Petersson et al. 2001.
The conditions of data set [8]: rats; Pahdy et al. 2005.

As for `CC(C)C[C@H](NC(=O)[C@@H]1CCCN1)C(=O)NCC(N)=O` [MIF, prolyl-leucyl-glycinamide] (H-Pro-Leu-Gly-NH2), the antidepressant activity result in data set [1] was “exhibits antidepressant activity”; in data set [3], “active as antidepressants”. For the same molecule, in data set [2], the “metabolism subsequent to administration” value is “rapidly metabolized”. Moreover, the oxytocin levels result in data set [4] was “decreases oxytocin levels”.
For “Tyr-Pro-Leu-Gly-NH2 (YPLG-NH2) [Tyr-MIF-1, brain derived peptide]”, the “inhibition of the analgesic effect of morphine” value in data set [5] is given as “active in inhibiting the analgesic effect of morphine”. The “effect on passive avoidance” value in data set [6] is reported as “shown to affect passive avoidance”. Besides, the antidepressant activity entry in data set [3] is given as “active as antidepressants”.
`CC[C@H](C)[C@@H]1NC(=O)[C@H](Cc2ccc(O)cc2)NC(=O)[C@@H](N)CSSC[C@@H](C(=O)N2CCC[C@H]2C(=O)N[C@@H](CC(C)C)C(=O)NCC(N)=O)NC(=O)[C@H](CC(N)=O)NC(=O)[C@H](CCC(N)=O)NC1=O` [oxytocin]: the carrageenan induced inflammation entry in data set [7] is recorded as “decreases carrageenan induced inflammation”. Also, the latex-induced inflammatory hyperalgesia result in data set [8] is listed as “inhibit Calotropis procera latex-induced inflammatory hyperalgesia”.
